Reference: US7176212B2, “2,4-diamino pyrimidine compounds having anti-cell proliferative activity” (AstraZeneca AB, priority 1998, dated 2007)
pIC50: −log10 of the molar value.

Assays:
[1] = biological target: T1, human Focal Adhesion Kinase (FAK) (Homo sapiens, UniProt Q05397); assay: FAK3 kinase inhibition assay (in vitro enzyme ELISA); format: biochemical; details: Poly (Glu, Ala, Tyr) substrate, read-out: FAK inhibitory activity IC50
T1 construct: FAK (full length human cDNA described by Andre et al); made in house; host or cells: Sf21 (Spodoptera frugiperda) insect cells, baculovirus (pFastbac 1)
T1 sequence (Q05397 whole entry): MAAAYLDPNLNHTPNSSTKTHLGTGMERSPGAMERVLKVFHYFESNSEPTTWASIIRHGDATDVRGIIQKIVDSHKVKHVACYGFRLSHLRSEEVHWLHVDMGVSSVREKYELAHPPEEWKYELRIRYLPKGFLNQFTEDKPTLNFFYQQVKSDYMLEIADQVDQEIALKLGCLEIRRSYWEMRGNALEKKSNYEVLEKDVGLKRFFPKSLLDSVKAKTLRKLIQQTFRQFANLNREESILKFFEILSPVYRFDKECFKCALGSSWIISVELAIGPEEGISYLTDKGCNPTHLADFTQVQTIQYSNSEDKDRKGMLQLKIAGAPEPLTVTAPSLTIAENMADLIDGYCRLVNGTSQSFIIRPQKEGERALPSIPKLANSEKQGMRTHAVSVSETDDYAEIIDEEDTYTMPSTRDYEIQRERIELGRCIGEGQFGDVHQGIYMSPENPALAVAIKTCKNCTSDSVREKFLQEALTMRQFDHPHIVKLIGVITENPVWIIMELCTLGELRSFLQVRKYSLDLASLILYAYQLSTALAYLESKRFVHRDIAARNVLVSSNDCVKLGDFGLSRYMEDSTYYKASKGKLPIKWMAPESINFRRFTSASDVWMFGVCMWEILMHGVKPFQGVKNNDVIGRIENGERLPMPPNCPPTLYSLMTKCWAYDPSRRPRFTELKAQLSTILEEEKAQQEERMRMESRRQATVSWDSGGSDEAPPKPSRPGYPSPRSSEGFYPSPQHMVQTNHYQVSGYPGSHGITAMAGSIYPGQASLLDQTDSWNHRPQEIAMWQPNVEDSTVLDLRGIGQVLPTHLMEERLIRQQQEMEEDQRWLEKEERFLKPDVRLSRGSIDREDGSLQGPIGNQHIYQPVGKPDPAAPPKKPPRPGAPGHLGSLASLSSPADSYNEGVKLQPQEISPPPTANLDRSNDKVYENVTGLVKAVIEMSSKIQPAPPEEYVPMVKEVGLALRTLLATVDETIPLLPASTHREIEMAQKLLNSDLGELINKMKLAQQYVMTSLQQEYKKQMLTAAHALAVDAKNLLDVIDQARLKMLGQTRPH
Procedure: A stock of substrate solution was prepared from a random copolymer containing tyrosine, for example Poly (Glu, Ala, Tyr) 6:3:1 (Sigma P3899), stored as 1 mg/ml stock in PBS at −20° C. and diluted 1 in 500 with PBS for plate coating.
The liquid was then discarded and the wells were washed twice with PBST.

CDK4/Cyclin D1 = biological target: T2, CDK4/Cyclin D1 (Homo sapiens, UniProt P11802); assay: CDK inhibition assay (Scintillation Proximity Assay, GST-Retinoblastoma substrate); format: biochemical; details: in-vitro SPA kinase assay, CDK4/Cyclin D1, GST-Rb substrate; read-out: CDK4 inhibitory activity IC50
T2 construct: CDK4 amino acids 1–303; made in house; host or cells: Sf21 (Spodoptera frugiperda) insect cells, baculovirus co-infection, vector pVL1393
T2 sequence (P11802 whole entry, the tested form may be a part): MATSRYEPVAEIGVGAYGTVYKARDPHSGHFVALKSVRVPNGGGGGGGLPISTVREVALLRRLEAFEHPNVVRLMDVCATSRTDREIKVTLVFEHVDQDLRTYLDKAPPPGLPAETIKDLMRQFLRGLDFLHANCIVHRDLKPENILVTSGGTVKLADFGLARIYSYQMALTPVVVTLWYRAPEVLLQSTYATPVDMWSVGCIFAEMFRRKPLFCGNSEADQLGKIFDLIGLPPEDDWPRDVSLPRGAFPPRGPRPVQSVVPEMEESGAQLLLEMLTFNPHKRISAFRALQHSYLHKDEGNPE
T2 sequence (P24385 whole entry partner, the tested form may be a part): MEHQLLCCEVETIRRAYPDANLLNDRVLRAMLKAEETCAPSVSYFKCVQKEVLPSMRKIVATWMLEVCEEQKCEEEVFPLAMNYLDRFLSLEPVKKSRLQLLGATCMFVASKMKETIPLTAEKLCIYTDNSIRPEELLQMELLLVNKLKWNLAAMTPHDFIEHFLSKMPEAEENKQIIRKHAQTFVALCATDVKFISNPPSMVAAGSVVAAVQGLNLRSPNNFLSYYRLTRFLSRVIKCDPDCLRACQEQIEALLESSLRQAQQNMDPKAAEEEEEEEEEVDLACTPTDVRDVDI
Procedure: The compounds were tested in an in vitro kinase assay in 96 well format using Scintillation Proximity Assay (SPA—obtained from Amersham) for measuring incorporation of [γ-33-P]-Adenosine Triphosphate into a test substrate (GST-Retinoblastoma). In each well was placed the compound to be tested (diluted in DMSO and water to correct concentrations) and in control wells either p16 as an inhibitor control or DMSO as a positive control.
Approximately 0.5 μl of CDK4/Cyclin D1 partially-purified enzyme (amount dependent on enzyme activity) diluted in 25 μl incubation buffer was added to each well then 20 μl of GST-Rb/ATP/ATP33 mixture (containing 0.5 μg GST-Rb and 0.2 μM ATP and 0.14 μCi [γ-33-P]-Adenosine Triphosphate), and the resulting mixture shaken gently, then incubated at room temperature for 60 minutes.
To each well was then added 150 μL stop solution containing (0.8 mg/well of Protein A-PVT SPA bead (Amersham)), 20 pM/well of Anti-Glutathione Transferase, Rabbit IgG (obtained from Molecular Probes), 61 mM EDTA and 50 mM HEPES pH 7.5 containing 0.05% sodium azide.
The plates were sealed with Topseal-S plate sealers, left for two hours then spun at 2500 rpm, 1124×g., for 5 minutes. The plates were read on a Topcount for 30 seconds per well. […]

pIC50 [1]	pIC50 (CDK4/Cyclin D1)	SMILES
5.48	6.22	Cc1ccc(Nc2ccnc(Nc3ccc(OCC(O)CN(C)C)cc3)n2)c(Br)c1 (stereo not drawn) [Example 3, 2-{4-[3-(N,N-Dimethyl)amino-2-hydroxy-propoxy]anilino}-4-(2-bromo-4-methylanilino)pyrimidine]
–	6.28	CN(C)CC(O)COc1ccc(Nc2nccc(Nc3cc(Cl)ccc3Cl)n2)cc1 (stereo not drawn) [Example 11, 2-{4-[3-(N,N-Dimethyl)amino-2-hydroxy-propoxy]anilino}-4-(2,5-dichloroanilino)pyrimidine]
